In US20220228192A1, “Method To Evaluate Metabolic Activity Of Liver Enzymes” (Owlstone Medical Limited, priority 2018, published 2022):

How the values were obtained:
[1] = Breath Biopsy: VOCs in exhaled breath after ingestion of a peppermint capsule; format: in vivo; settings: for VOC level in breath compared to baseline pre-ingestion controls: breath captured 30 minutes after consumption of the peppermint capsule, FIG. 1; for VOC level in breath compared to baseline pre-ingestion controls / relative abundance among peppermint-related compounds in breath: single individual
Protocol: For comparison, two breath collections were made from the same individual prior to ingestion to provide a baseline concentration for the VOCs of interest. Breath samples were analysed in the Breath Biopsy® Clinical Lab by FAIMS and TD-GC-TOF mass spectrometry.

[2] = biological target: CYP3A4 (Homo sapiens, UniProt P08684); settings: cited from earlier work
Sequence of CYP3A4 (P08684 whole entry): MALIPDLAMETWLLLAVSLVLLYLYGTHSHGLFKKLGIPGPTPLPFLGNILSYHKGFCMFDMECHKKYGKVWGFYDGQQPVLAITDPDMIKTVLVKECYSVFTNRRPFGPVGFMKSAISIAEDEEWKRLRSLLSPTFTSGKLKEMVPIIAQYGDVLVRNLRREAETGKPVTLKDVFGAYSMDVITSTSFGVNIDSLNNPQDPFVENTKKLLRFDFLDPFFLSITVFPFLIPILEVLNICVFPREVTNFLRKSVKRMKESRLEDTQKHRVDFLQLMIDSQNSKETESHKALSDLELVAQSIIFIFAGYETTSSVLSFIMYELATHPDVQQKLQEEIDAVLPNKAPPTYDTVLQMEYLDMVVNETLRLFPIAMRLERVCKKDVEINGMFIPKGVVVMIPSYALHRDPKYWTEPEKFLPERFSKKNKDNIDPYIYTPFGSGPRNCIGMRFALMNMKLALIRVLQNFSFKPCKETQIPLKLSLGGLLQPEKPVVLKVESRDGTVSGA

[3] = system: CYP2C19 and CYP2C9 enzymes; assay: Clinical study: limonene in exhaled breath, patients treated with an atherothrombotic drug versus untreated controls; format: in vivo; settings: drug metabolised by CYP2C19 and CYP2C9 competes with limonene metabolism; FIG. 5
Source text: FIG. 5. Limonene concentration in the exhaled breath of patients prescribed with an atherothrombotic drug that is metabolised by CYP2C19 and CYP2C9 enzymes.
The drug is metabolised by CYP2C19 and CYP2C9 enzymes. […] As less limonene is metabolised compare dot eh control group.

[4] = after consumption of the peppermint capsule

| SMILES | VOC level in breath compared to baseline pre-ingestion controls [1] | metabolising enzyme [2] | concentration in breath [1, 4] | relative abundance among peppermint-related compounds in breath [1, 4] | limonene in exhaled breath, drug-treated patients versus untreated control group [3] |
| --- | --- | --- | --- | --- | --- |
| CC1CCC(C(C)C)C(O)C1 (racemic) [(±)-menthol] | large increase | – | – | – | – |
| CC12CCC(CC1)C(C)(C)O2 [eucalyptol] | large increase | specifically metabolised by CYP3A4 | – | – | – |
| C=C(C)[C@H]1CC=C(C)CC1 [limonene] | large increase | – | part-per-trillion (ppt) concentrations | most abundant | higher secretion of limonene into breath |
| CC1=CCC2CC1C2(C)C (stereo not drawn) [α-pinene] | large increase | – | – | – | – |
| C=C1CCC2CC1C2(C)C (stereo not drawn) [β-pinene] | large increase | – | – | most abundant | – |
